Assay results taken from paper PMC12067093, “Discovery and optimisation of a covalent ligand for TRIM25 and its application to targeted protein ubiquitination” (Chemical Science, 2025).

Target: T1, TRIM25 PRYSPRY and BRD4 BD2 ternary complex (Homo sapiens, UniProt O60885+Q14258)
T1 construct: made in house; host or cells: Sf9 insect cells (TRIM25 PRYSPRY)
Test: Recombinant protein ternary complex pull-down
Format: binding
Conditions: TRIM25 PRYSPRY pre-labelled with compound 50 μM overnight, intermediate wash step, then BRD4 BD2
Method: 3 25 mM HEPES, 50 mM NaCl for 20 h at 4 °C, before purification by gel filtration into
4 buffer 20 mM Bis-Tris pH 7.5, 150 mM NaCl, 0.5 mM TCEP. Commercially available
5 sitting drop crystallization screens were dispensed at 20 °C using an automated
6 Mosquito machine (TTP Labtech). Crystals grew from a pre-labelled protein-ligand
8 drops containing 100 nL protein-ligand complex and 100 nL reservoir solution. For X-
9 ray data acquisition, crystals were cryoprotected with perfluoropolyether cryo oil
10 (Hampton Research, HR2-814). Diffraction data were collected on beamline I04 (λ =
11 0.9537 Å) at Diamond Light Source (Oxford, UK), processed using DIALS17 and
12 merged and scaled using AIMLESS.18 The structure of the complex was solved by
13 molecular replacement using the available TRIM25 PRYSPRY structure (6FLM)10 as
15 in Coot20 and refined using Refmac21 and Phenix.19 Coordinates and structure factors
16 are deposited in the Protein Data Bank under accession code 9I0T. Further details on
17 data collection and refinement statistics are summarised in Supplementary Table 1.
20 Recombinant TRIM25 PRYSPRY (100 µM) in 25 mM HEPES pH 7.5, 50 mM NaCl,
23 acquired with Topspin (Bruker) at timepoint 0 (immediately after mixing protein with
24 compound), and after 4 h incubation.
26 Recombinant protein ternary complex pull-down assays
27 His10-TRIM25 or His6-TRIM25 PRYSPRY (4 µM) was pre-labelled with either DMSO
28 (1%) or heterobifunctional compounds (HB1, HB2 or HB3, 50 µM, 1% DMSO) and
29 captured on His Mag Sepharose Ni magnetic beads, and washed once to remove
30 excess unreacted compound, as described above.
32 Substrate (BRD4 or BRD4 BD2) (4 µM, assuming 1:1 with on-bead captured TRIM25-
33 compound complex) was added to the on-bead captured TRIM25-compound complex,
1 and incubated in capture buffer 50 mM Tris pH 7.5, 150 mM NaCl, 5 mM MgCl2, 20 mM
2 imidazole, 0.5 mM TCEP, 0.5% IGEPAL for 2 h at 4 °C, with rotation. Beads were
3 washed three times with 500 µL capture buffer, and mixed with 12 µL NuPAGE LDS
4 sample buffer (1x, Invitrogen, NP0007). Samples were analysed by SDS-PAGE and […]

T1 sequence (Q14258 435-630, other chains not shown): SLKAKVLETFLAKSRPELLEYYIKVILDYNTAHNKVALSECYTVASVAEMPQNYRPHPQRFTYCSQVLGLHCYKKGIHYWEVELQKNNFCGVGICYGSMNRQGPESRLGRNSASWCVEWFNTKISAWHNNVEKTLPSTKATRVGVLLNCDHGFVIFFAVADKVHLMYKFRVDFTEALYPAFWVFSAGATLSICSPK

| in vitro ternary complex formation (pull-down) | SMILES |
| --- | --- |
| Ternary complex formation was observed | Cc1cc(C(=O)N2CCCN(C(=O)CCl)CC2)ccc1-c1cccc(C(=O)NCCOCCOCCNC(=O)C[C@@H]2N=C(c3ccc(Cl)cc3)c3c(sc(C)c3C)-n3c(C)nnc32)c1 [HB1] |
| Ternary complex formation was observed | Cc1cc(C(=O)N2CCCN(C(=O)CCl)CC2)ccc1-c1cccc(C(=O)NCCOCCOCCOCCNC(=O)C[C@@H]2N=C(c3ccc(Cl)cc3)c3c(sc(C)c3C)-n3c(C)nnc32)c1 [HB2] |
| Ternary complex formation was observed | Cc1cc(C(=O)N2CCCN(C(=O)CCl)CC2)ccc1-c1cccc(C(=O)NCCOCCOCCOCCOCCNC(=O)C[C@@H]2N=C(c3ccc(Cl)cc3)c3c(sc(C)c3C)-n3c(C)nnc32)c1 [HB3] |
